One block for each molecule: values may come before it. Peptide text beside a SMILES is read from it.
Experiments:
[1] = system: Primary fibroblasts from Progeria patients; assay: Senescence (SA-β-galactosidase, ATRX foci) in Progeria fibroblasts, short sequences; assay type: cell-based, human; details: 500 nM, 5 μM, 50 μM
Description: Skin cells from Progeria patients were used as a model of aging because of the high levels of cellular senescence. Primary fibroblasts from Progeria patients were cultured in DMEM (Dulbecco's Modified Eagle's Medium) supplemented with 10% v.v. fetal bovine serum (FBS), and 1% v.v. of penicillin/streptomycin solution (1,000 U·mL−1). Cells cultured at 5% CO2, 37° C. and 95% humidity atmosphere. After expansion, the cells were seeded in 96-well plates (4,000 cells per well) and, 6 hours after plating, were incubated with 500 nM, 5 μM or 50 μM of polypeptide sequence LKGIL (SEQ ID NO: 6) or WLKGI (SEQ ID NO: 7). Negative control comprised untreated cells, which received vehicle only. After incubation, relative cellular senescence, which was assessed by the activity of senescence associated β-galactosidase staining relative to untreated control and by the quantification of ATRX foci/nuclei, was analyzed. Three independent experiments (biological replicates) including three technical replicates were performed. Data was analyzed using ANOVA and a Bonferroni post-hoc test. Statistical significance was determined as p values equal or lower than 0.05, where *p<0.05 and ** p<0.01.

[2] = system: Primary fibroblasts from Progeria patients; assay: Polypeptide library screen: SA-B-galactosidase senescence and cell number in Progeria fibroblasts; assay type: cell-based, human; details: 10 μM, 48 hours
Description: Primary fibroblasts isolated from Progeria patients can constitute a genetic model of early aging and cellular senescence in humans. Primary fibroblasts from Progeria patients were cultured in DMEM (Dulbecco's Modified Eagle's Medium) supplemented with 10% v.v. fetal bovine serum (FBS), and 1% v.v. of penicillin/streptomycin solution (1,000 U·mL−1). Cells were kept in a 5% CO2, 37° C. and 95% humidity atmosphere. After expansion, these cells were seeded in 96-well plates (1,000 cells per well) and, 6 hours after plating, were incubated with individual polypeptides from a proprietary library at 50 μM for 48 hours. Negative control comprised untreated cells, which received vehicle only; positive control group comprised cells incubated with 10 μM ABT-263, a senolytic compound for the same period. […] Three independent experiments including three technical replicates were performed.

MeWo cells [3] = assay: Melanin content of MeWo cells, 14 days or interrupted on 7th day; assay type: cell-based, human
Description: The skin frequently may experience rebound hyperpigmentation, where pigmentation is reestablished in the skin after the discontinuation of the lightening treatment(s). To test whether the depigmentation effect of Peptide 14 remained after the Peptide 14 treatment was discontinued, MeWo cells were cultured in DMEM supplemented with 10% v/v FBS and 1% v/v of penicillin/streptomycin solution (1,000 U·mL^−1) at 5% CO2, 37° C. and 95% humidity. For two weeks prior to treatment with one of the experimental conditions (pre-treatment), the MeWo cells were cultured with isobutyl methylxanthine (IBMX) to stimulate melanin synthesis. After the MeWo cells were seeded in 6-well plates at 1,000,000 cells per well for 6 hours, the cells were incubated with one of the experimental conditions for 14 days and analyzed for intracellular and supernatant melanin content.
The experimental conditions included a positive control group, a negative control group, a Peptide 14 (IBMX) 14 days group, a retinoic acid (IBMX) 14 days group, a Peptide 14 (IBMX) interrupted on 7th day group, and a retinoic acid (IBMX) interrupted on 7th day group. The negative control group comprised MeWo cells which were stimulated with 25 μM IBMX for 2 weeks in the pre-treatment period and then were untreated for 14 days, receiving the vehicle only, after being plated for the experiment. The positive control group comprised MeWo cells that were incubated with 25 μM IBMX during the entire experiment, for 2 weeks in the pre-treatment period and for 14 days in the treatment period. Some of the groups were treated with both IBMX 25 μM for 7 or 14 days, as well as 3.12 μM Peptide 14, or both IBMX 25 μM (for 7 or 14 days), as well as retinoic acid 2 μM. The Peptide 14 (IBMX) 14 day group comprised MeWo cells that were incubated with 25 μM IBMX 2 weeks in the pre-treatment period and then treated for 14 days with 25 μM IBMX and 3.12 μM Peptide 14. The retinoic acid (IBMX) 14 day group comprised MeWo cells that were incubated with 25 μM IBMX 2 weeks in the pre-treatment period and then treated for 14 days with 25 μM IBMX and 2 μM retinoic acid. […]
(§1) After treatment, the melanin content in the cell pellet and the cell culture supernatant was assessed by the absorbance of the samples at 492 nm. […] Data are presented as relative melanin content, absorbance of the samples at a specified wavelength (492 nm) normalized to the normalized to the number of cells in the sample absorbance of the negative control samples also as the same wavelength. […] The data were analyzed using ANOVA and Bonferroni post-hoc test when a statistical significance was detected. […]

MeWo cells [4] = assay: Melanin content of MeWo cells, 7 days treatment; assay type: cell-based, human; details: 7 days after 14 day IBMX pre-treatment; Peptide 14 3.12 μM or retinoic acid 2 μM with 25 μM IBMX; positive control 25 μM IBMX
Description: To test whether Peptide 14 promotes depigmentation of melanocytes, MeWo cells were cultured in DMEM supplemented with 10% v/v FBS and 1% v/v of penicillin/streptomycin solution (1,000 U·mL^−1) at 5% CO2, 37° C. and 95% humidity. For two weeks prior to treatment with one of the experimental conditions (pre-treatment), the MeWo cells were cultured with isobutyl methylxanthine (IBMX) to stimulate melanin synthesis. After the MeWo cells were seeded in 6-well plates at 1,000,000 cells per well for 6 hours, the cells were incubated with one of the experimental conditions for 7 days and analyzed for intracellular and supernatant melanin content.
The experimental conditions included a positive control group, a negative control group, a Peptide 14 (IBMX) 7d group, and a retinoic acid (IBMX) 7d group. […]
as §1, with “the” for “the normalized to the number of cells in the sample”

[5] = system: human primary fibroblasts isolated from 3 healthy donors, etoposide-stressed; assay: Etoposide-induced senescence in fibroblasts; assay type: cell-based; details: etoposide 20 μM, 24 hours
Description: Cellular senescence may be caused by several different stimuli. In order to assess whether Peptide 14 was effective against UVB-induced and chemically-induced senescence, human primary fibroblasts isolated from 3 healthy donors were used. These cells were cultured in DMEM (Dulbecco's Modified Eagle's Medium) supplemented with 10% v.v. fetal bovine serum (FBS), and 1% v.v. of penicillin/streptomycin solution (1,000 U·mL−1). Cells were kept in a 5% CO2, 37° C. and 95% humidity atmosphere. After expansion, these cells were seeded in 96-well plates (4,000 cells per well) and, 6 hours after plating, were submitted to either etoposide (20 μM) treatment for 24 hours, or exposed twice to 0.05 J/cm^2 of UVB radiation. […] After incubation, relative cellular senescence (assessed by the activity of senescence associated β-galactosidase staining relative to untreated control) was analyzed and plotted in column graphs. ATRX foci were also assessed following ATRX immunofluorescence staining. Graphs were built using the average ATRX foci detected per nuclei. […] Data was analyzed using with either t-test or ANOVA followed by a Bonferroni post-hoc test. Statistical significance was determined as p-values equal or lower than 0.05 (FIG. 6).

[6] = system: Primary fibroblasts isolated from 3 healthy chronologically aged patients; assay: SA-B-galactosidase senescence in fibroblasts of aged donors, concentration series; assay type: cell-based, human; details: 1.56-50 μM (Peptide 16: 1.56-25 μM), 48 hours; in at least one of the tested concentrations
Description: Primary fibroblasts isolated from 3 healthy chronologically aged patients were used. Cells were cultured in DMEM (Dulbecco's Modified Eagle's Medium) supplemented with 10% v.v. fetal bovine serum (FBS), and 1% v.v. of penicillin/streptomycin solution (1,000 U·mL−1). Cells were kept in a 5% CO2, 37° C. and 95% humidity atmosphere. After expansion, these cells were seeded in 96-well plates (4,000 cells per well) and, 6 hours after plating the cells were treated with one of 4 senotherapeutic polypeptides (Peptide 14, Peptide 13, Peptide 15, and Peptide 16) and incubated for 48 hours. Each polypeptide was tested at 6 different concentrations: 50 μM, 25 μM, 12.5 μM, 6.25 μM, 3.12 μM, and 1.56 μM, except for Peptide 16, which was tested at 5 different concentrations: 25 μM, 12.5 μM, 6.25 μM, 3.12 μM, and 1.56 μM. A negative control comprised untreated cells, which received vehicle only. After incubation, relative cellular senescence (assessed by the activity of senescence associated B-galactosidase staining relative to untreated control) was analyzed (FIG. 2, panels A-D), in which the Y axis indicates the relative senescence levels normalized to untreated control. Each column corresponds to a different concentration of a polypeptide. Three independent experiments (biological replicates) including three technical replicates were performed. Data was analyzed using Analysis of Variance (ANOVA) and a Bonferroni post-hoc tests. Statistical significance was determined as p values equal or lower than 0.05.

[7] = 7 day treatment, then 7 days 25 μM IBMX only

Molecule: CC[C@H](C)[C@H](NC(=O)CNC(=O)[C@H](CCCCN)NC(=O)[C@@H](N)CC(C)C)C(=O)N[C@@H](CC(C)C)C(=O)O [LKGIL] (H-LKGIL-OH; N-terminus and C-terminus assumed)
cellular toxicity (relative cell number) [1]: No cellular toxicity

Molecule: CC1(C)CCC(c2ccc(Cl)cc2)=C(CN2CCN(c3ccc(C(=O)NS(=O)(=O)c4ccc(N[C@H](CCN5CCOCC5)CSc5ccccc5)c(S(=O)(=O)C(F)(F)F)c4)cc3)CC2)C1 [ABT-263]
cellular toxicity (cell number) [2]: cellular toxicity
cellular senescence (SA-B-galactosidase staining) ([2]; positive control): significant reduction

Molecule: CC1=C(/C=C/C(C)=C/C=C/C(C)=C/C(=O)O)C(C)(C)CCC1 [retinoic acid]
relative melanin content, cell culture supernatant (MeWo cells [3]; [7]): about 100%
relative melanin content, cell pellet (MeWo cells [3]; [7]): about 90%
relative melanin content, cell pellet (MeWo cells [3]; 14 day treatment, Peptide 14 3.12 μM or retinoic acid 2 μM with 25 μM IBMX, positive control 25 μM IBMX, normalized to cell number and negative control): about 130%
relative melanin content, cell culture supernatant (MeWo cells [3]; 14 day treatment, positive control 25 μM IBMX): about 50%
relative melanin content, cell pellet (MeWo cells [4]): about 125 % of the negative control group

Molecule: COc1cc([C@@H]2c3cc4c(cc3[C@@H](O[C@@H]3O[C@@H]5CO[C@@H](C)O[C@H]5[C@H](O)[C@H]3O)[C@H]3COC(=O)[C@H]23)OCO4)cc(OC)c1O [Etoposide, etoposide]
ATRX foci nuclear accumulation (average ATRX foci/cell) [5]: significant increase
cellular senescence level [5]: significant increase

Molecule: CC[C@H](C)[C@H](NC(=O)CNC(=O)[C@H](CCCCN)NC(=O)[C@H](CC(C)C)NC(=O)[C@@H](N)Cc1c[nH]c2ccccc12)C(=O)O [WLKGI] (H-WLKGI-OH; N-terminus and C-terminus assumed)
cellular toxicity (relative cell number) [1]: No cellular toxicity

relative cellular senescence (SA-B-galactosidase staining) vs untreated control [6]: senotherapeutic effects
Molecule: KLKGILRGAA [Peptide 15]

relative cellular senescence (SA-B-galactosidase staining) vs untreated control [6]: senotherapeutic effects
Molecule: WLKGILREAA [Peptide 16]

— patent publication US12268747B2, “Polypeptides having anti-senescent effects and uses thereof” (OneSkin, Inc., priority 2019, dated 2025)
